Experimental data as given in patent US5021458A, “Amine derivatives and fungicides containing the same” (Kaken Pharmaceutical Co., Ltd., priority 1984, dated 1991).
In brackets after ≈: the same amount, converted by molar mass.

Tests used:
[1] = Side effect test on guinea pig skin (Test Example 3); format: in vivo, male Hartley guinea pig; details: 0.2 ml/day of 0.5 % solution in ethanol, once in a day for ten days; lightly rubbed guinea pig skin
Procedure: Two portions in the back of male Hartley guinea pig weighing 600° to 700 g were unhaired in an area of 4 cm^2 respectively in order to examine side effects of the test compounds. The next day unhaired portions were lightly rubbed with sandpaper. The test compounds obtained in Example 1 was dissolved in ethanol and 0.2 ml/day of the resultant 0.5 % solution was applied to one of the unhaired portions, while 0.2 ml/day of only ethanol was applied to the other portions, once in a day for ten days respectively.

[2] = test system: Trichophyton mentagrophytes; test: Test on treatment of trichophytosis in guinea pig (Test Example 2); format: in vivo; details: 0.2 ml of 0.1 % solution in ethanol, once in a day for ten days since 48 hours after infection; guinea pig back skin
Procedure: In the back of male Hartley guinea pig weighing 600° to 700 g, four portions were unhaired in an area of 4 cm^2 respectively and rubbed lightly with sandpaper, to which the second generation of Trichophyton mentagrophytes incubated inversely from another guinea pig was infected at 1×10^5 spores per portion. The test compounds obtained in Example 1 was dissolved in ethanol and 0.2 ml of the resultant 0.1 % solution was applied to the infected portions once in a day for ten days since 48 hours after the infection. Test animal was killed 2 days after the last treatment and 10 tissue specimens from each infected portions were placed on Sabouraud's plates containing cycloheximide and kanamycin, which were incubated at 27° C. for 7 days.
inhibitory ratio ={1-(number of tissue specimens found fungi/number of tissue specimens incubated inversely)}×100

[3] = test system: Trichophyton interdigitale; test: In vitro antifungal activity test (Test Example 1), Sabouraud's agar, Trichophyton interdigitale; format: cell-based; details: 168 h; (b) Trichophyton interdigitale; 27° C., 7 days; read-out: minimal growth-inhibitory concentration (MIC)
Procedure: (§1) The antifungal activity of the compound of the present invention against Trichophyton metagrophytes, Trichophyton interdigitale and Trichophyton rubrum was tested employing Sabouraud's agar medium.
(§2) Each test compound shown in Table 4 was dissolved into 1 ml of ethanol and thereto distilled water was added to adjust to the concentration of 1000 μg/ml. In this way twofold dilution series was made, 1 ml of which was respectively taken into shale and therewith 9 ml of Sabouraud's agar medium was mixed to form plate medium.
(§3) In this plate medium was implanted 0.0005 ml of each test fungus at 2×10^6 spores/ml by the microplanter MIP-2 (Sakuma Seisakusho Co., Ltd.) and was incubated at 27° C. for 7 days. The results were shown in Table 2 as the minimal growth-inhibitory concentration (MIC, μg/ml).

[4] = test system: Trichophyton mentagrophytes; test: In vitro antifungal activity test (Test Example 1), Sabouraud's agar, Trichophyton mentagrophytes; format: cell-based; details: 168 h; (a) Trichophyton mentagrophytes; 27° C., 7 days; read-out: minimal growth-inhibitory concentration (MIC)
Procedure: as §1, §2, §3

[5] = test system: Trichophyton rubrum; test: In vitro antifungal activity test (Test Example 1), Sabouraud's agar, Trichophyton rubrum; format: cell-based; details: 168 h; (c) Trichophyton rubrum; 27° C., 7 days; read-out: minimal growth-inhibitory concentration (MIC)
Procedure: as §1, §2, §3

Structure (SMILES)	side effects [1]	inhibitory ratio [2]	MIC [3]	MIC [4]	MIC [5]
CN(Cc1ccc(C(C)(C)C)cc1)Cc1cccc2ccccc12.Cl [Example 1, N-(4-tert-butylbenzyl)-N-methyl-1-naphthylmethylamine hydrochloride]	side effects such as, for instance, erythema and papula were not observed	82%	0.006 µg/mL	0.0125 µg/mL	0.003 µg/mL
Cc1ccc2ccccc2c1CN(C)Cc1ccc(C(C)(C)C)cc1 [Example 2]			0.1 µg/mL (≈ 0.302 µM)	0.2 µg/mL (≈ 0.603 µM)	0.1 µg/mL (≈ 0.302 µM)
Cc1ccc(CN(C)Cc2ccc(C(C)(C)C)cc2)c2ccccc12 [Example 3]			0.05 µg/mL (≈ 0.151 µM)	0.1 µg/mL (≈ 0.302 µM)	0.025 µg/mL (≈ 0.0754 µM)
CN(Cc1ccc(C(C)(C)C)cc1)Cc1ccc(F)c2ccccc12 [Example 4]			0.006 µg/mL (≈ 0.0179 µM)	0.025 µg/mL (≈ 0.0745 µM)	0.006 µg/mL (≈ 0.0179 µM)
CN(Cc1ccc(C(C)(C)C)cc1)Cc1ccc(Cl)c2ccccc12 [Example 5]			0.1 µg/mL (≈ 0.284 µM)	0.1 µg/mL (≈ 0.284 µM)	0.025 µg/mL (≈ 0.071 µM)
CN(Cc1ccc(C(C)(C)C)cc1)Cc1ccc(Br)c2ccccc12 [Example 6]			0.2 µg/mL (≈ 0.505 µM)	0.2 µg/mL (≈ 0.505 µM)	0.05 µg/mL (≈ 0.126 µM)
CN(Cc1ccc(C(C)(C)C)cc1)Cc1ccc(I)c2ccccc12 [Example 7]			0.39 µg/mL (≈ 0.88 µM)	0.78 µg/mL (≈ 1.76 µM)	0.39 µg/mL (≈ 0.88 µM)
CN(Cc1ccc(C(C)(C)C)cc1)Cc1cccc2c([N+](=O)[O-])cccc12 [Example 8]			0.05 µg/mL (≈ 0.138 µM)	0.1 µg/mL (≈ 0.276 µM)	0.025 µg/mL (≈ 0.069 µM)
CC(c1cccc2ccccc12)N(C)Cc1ccc(C(C)(C)C)cc1 (stereo not shown) [Example 9, N-4-tert-Butylbenzyl-N-methyl-1-(1-naphthyl)ethylamine]			0.025 µg/mL (≈ 0.0754 µM)	0.025 µg/mL (≈ 0.0754 µM)	0.003 µg/mL (≈ 0.00905 µM)
CN(Cc1ccc(C(C)(C)C)cc1)Cc1ccc2ccccc2c1 [Example 10]			1.56 µg/mL (≈ 4.91 µM)	1.56 µg/mL (≈ 4.91 µM)	0.39 µg/mL (≈ 1.23 µM)
CCC(C)(C)c1ccc(CN(C)Cc2cccc3ccccc23)cc1 [Example 12, N-Methyl-N-4-tert-pentylbenzyl-1-naphthylmethylamine]			0.0125 µg/mL (≈ 0.0377 µM)	0.0125 µg/mL (≈ 0.0377 µM)	0.006 µg/mL (≈ 0.0181 µM)
Cc1cccc(CN(C)Cc2cccc3ccccc23)c1 [Example 13]			25 µg/mL (≈ 90.8 µM)	25 µg/mL (≈ 90.8 µM)	12.5 µg/mL (≈ 45.4 µM)
CN(Cc1cccc(C(F)(F)F)c1)Cc1cccc2ccccc12 [Example 14]			6.25 µg/mL (≈ 19 µM)	12.5 µg/mL (≈ 38 µM)	6.25 µg/mL (≈ 19 µM)
Cc1ccc(CN(C)Cc2cccc3ccccc23)cc1 [Example 15]			3.13 µg/mL (≈ 11.4 µM)	0.78 µg/mL (≈ 2.83 µM)	0.39 µg/mL (≈ 1.42 µM)
CN(Cc1ccc(C2CCCCC2)cc1)Cc1cccc2ccccc12 [Example 16]			1.56 µg/mL (≈ 4.54 µM)	3.13 µg/mL (≈ 9.11 µM)	1.56 µg/mL (≈ 4.54 µM)
CN(Cc1ccc(Cl)c(Cl)c1)Cc1cccc2ccccc12 [Example 17]			1.56 µg/mL (≈ 4.72 µM)	1.56 µg/mL (≈ 4.72 µM)	1.56 µg/mL (≈ 4.72 µM)
CCN(Cc1ccc(C(C)(C)C)cc1)Cc1cccc2ccccc12 [Example 18]			0.05 µg/mL (≈ 0.151 µM)	0.1 µg/mL (≈ 0.302 µM)	0.006 µg/mL (≈ 0.0181 µM)
CCCN(Cc1ccc(C(C)(C)C)cc1)Cc1cccc2ccccc12 [Example 19]			0.2 µg/mL (≈ 0.579 µM)	0.78 µg/mL (≈ 2.26 µM)	0.2 µg/mL (≈ 0.579 µM)
CCCCN(Cc1ccc(C(C)(C)C)cc1)Cc1cccc2ccccc12 [Example 20]			6.25 µg/mL (≈ 17.4 µM)	6.25 µg/mL (≈ 17.4 µM)	3.13 µg/mL (≈ 8.71 µM)

Structure (SMILES)	side effects [1]	inhibitory ratio [2]	MIC [3]	MIC [4]	MIC [5]
CC(C)c1ccc(CN(C)Cc2cccc3ccccc23)cc1 [Example 22, N-4-Isopropylbenzyl-N-methyl-1-naphthylmethylamine]			0.1 µg/mL (≈ 0.33 µM)	0.025 µg/mL (≈ 0.0824 µM)	0.0125 µg/mL (≈ 0.0412 µM)
CCc1ccc(CN(C)Cc2cccc3ccccc23)cc1 [Example 23]			0.2 µg/mL (≈ 0.691 µM)	0.1 µg/mL (≈ 0.346 µM)	0.1 µg/mL (≈ 0.346 µM)
CCCCc1ccc(CN(C)Cc2cccc3ccccc23)cc1 [Example 24]			0.2 µg/mL (≈ 0.63 µM)	0.1 µg/mL (≈ 0.315 µM)	0.1 µg/mL (≈ 0.315 µM)
Cc1ccc(CN(C)Cc2cccc3ccccc23)cc1C [Example 25]			0.78 µg/mL (≈ 2.7 µM)	0.78 µg/mL (≈ 2.7 µM)	0.39 µg/mL (≈ 1.35 µM)
Cc1cc(C)cc(CN(C)Cc2cccc3ccccc23)c1 [Example 26]			12.5 µg/mL (≈ 43.2 µM)	12.5 µg/mL (≈ 43.2 µM)	6.25 µg/mL (≈ 21.6 µM)
CN(Cc1ccc(C(C)(C)C)cc1)Cc1c(O)ccc2ccccc12.Cl [Example 28, N-(4-tert-butylbenzyl)-N-methyl-2-hydroxy-1-naphthylmethylamine hydrochloride]			12.5 µg/mL	25 µg/mL	6.25 µg/mL
CN(Cc1ccc(C(C)(C)C)cc1)Cc1csc2ccccc12 [Example 29, N-4-tert-Butylbenzyl-N-methyl-3-benzo[b]-thienylmethylamine]				0.05 µg/mL (≈ 0.155 µM)	0.05 µg/mL (≈ 0.155 µM)
CCN(Cc1ccc(C(C)(C)C)cc1)Cc1csc2ccccc12 [Example 30]				0.78 µg/mL (≈ 2.31 µM)	0.78 µg/mL (≈ 2.31 µM)
Cc1cccc2c(CN(C)Cc3ccc(C(C)(C)C)cc3)csc12 [Example 33]				0.2 µg/mL (≈ 0.593 µM)	0.1 µg/mL (≈ 0.296 µM)
CN(Cc1ccc(C(C)(C)C)cc1)Cc1cccc2sccc12 [Example 34]				0.025 µg/mL (≈ 0.0773 µM)	0.025 µg/mL (≈ 0.0773 µM)
CN(Cc1ccc(C(C)(C)C)cc1)Cc1cccc2ccsc12 [Example 35]				0.78 µg/mL (≈ 2.41 µM)	0.78 µg/mL (≈ 2.41 µM)
CN(Cc1ccc(C(C)(C)C)cc1)Cc1cccc2c1CCCC2 [Example 39]				0.39 µg/mL (≈ 1.21 µM)	0.39 µg/mL (≈ 1.21 µM)
CN(Cc1ccc2ccccc2c1)Cc1ccc(F)c2ccccc12 [Example 43]				0.2 µg/mL (≈ 0.607 µM)	0.2 µg/mL (≈ 0.607 µM)
Cc1ccc(CN(C)Cc2ccc3ccccc3c2)c2ccccc12 [Example 49]				0.39 µg/mL (≈ 1.2 µM)	0.39 µg/mL (≈ 1.2 µM)
CC(c1cccc2ccccc12)N(C)Cc1ccc2ccccc2c1 (stereo not shown) [Example 51]				0.39 µg/mL (≈ 1.2 µM)	0.2 µg/mL (≈ 0.615 µM)
CN(Cc1ccc2c(c1)CCCC2)Cc1cccc2ccccc12 [Example 54]				0.1 µg/mL (≈ 0.317 µM)	0.1 µg/mL (≈ 0.317 µM)
CCN(Cc1ccc2c(c1)CCCC2)Cc1cccc2ccccc12 [Example 56]				0.2 µg/mL (≈ 0.607 µM)	0.2 µg/mL (≈ 0.607 µM)
CCN(Cc1ccc2ccccc2c1)Cc1cccc2ccccc12 [Example 63]				0.39 µg/mL (≈ 1.2 µM)	0.1 µg/mL (≈ 0.307 µM)
CN(Cc1ccc(C(C)(C)C)s1)Cc1cccc2ccccc12 [Example 69]				0.05 µg/mL (≈ 0.155 µM)	0.025 µg/mL (≈ 0.0773 µM)
